Laboratory results taken from ChEMBL document CHEMBL4823253, “Structure-Based Design of Selective LONP1 Inhibitors for Probing In Vitro Biology” (J Med Chem, 2021).
pIC50: −log10 of the molar value. Calls of active or inactive are those of the source. No cut-off for these calls is given here.

How the values were obtained:
[1] = molecular target: T1, Lon protease homolog, mitochondrial (Homo sapiens, UniProt P36776); test: Inhibition of LONP1 (unknown origin) using QXL520-YRGITCSGRQK(5-FAM)-NH2 peptide as substrate incubated for 50 mins in presence of ATP by HTRF assay
T1 sequence (P36776 whole entry): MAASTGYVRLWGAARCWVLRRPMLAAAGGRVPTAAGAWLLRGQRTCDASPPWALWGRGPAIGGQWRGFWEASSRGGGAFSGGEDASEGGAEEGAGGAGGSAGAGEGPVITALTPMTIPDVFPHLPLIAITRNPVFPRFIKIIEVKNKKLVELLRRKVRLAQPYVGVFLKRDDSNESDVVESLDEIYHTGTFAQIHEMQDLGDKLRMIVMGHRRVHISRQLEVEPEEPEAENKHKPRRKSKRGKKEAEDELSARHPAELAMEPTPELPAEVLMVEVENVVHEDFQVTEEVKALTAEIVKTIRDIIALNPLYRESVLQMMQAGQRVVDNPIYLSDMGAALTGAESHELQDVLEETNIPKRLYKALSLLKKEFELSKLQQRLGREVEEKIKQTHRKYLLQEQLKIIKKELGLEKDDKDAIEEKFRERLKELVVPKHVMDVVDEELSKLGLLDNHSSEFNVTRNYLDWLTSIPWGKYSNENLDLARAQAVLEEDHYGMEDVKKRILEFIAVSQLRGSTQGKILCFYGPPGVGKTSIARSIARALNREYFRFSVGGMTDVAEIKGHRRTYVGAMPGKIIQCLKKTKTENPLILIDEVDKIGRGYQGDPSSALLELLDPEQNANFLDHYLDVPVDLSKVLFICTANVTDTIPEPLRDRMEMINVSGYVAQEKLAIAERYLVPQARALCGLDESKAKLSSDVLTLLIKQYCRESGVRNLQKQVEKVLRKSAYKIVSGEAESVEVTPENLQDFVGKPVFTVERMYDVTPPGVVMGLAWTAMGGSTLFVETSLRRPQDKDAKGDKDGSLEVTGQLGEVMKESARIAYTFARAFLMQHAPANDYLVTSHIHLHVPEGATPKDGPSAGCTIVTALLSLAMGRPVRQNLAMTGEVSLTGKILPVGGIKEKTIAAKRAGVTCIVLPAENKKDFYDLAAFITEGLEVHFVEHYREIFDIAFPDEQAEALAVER

20S proteasome = test: Inhibition of human erythrocytes 20S proteasome using QXL520-YRGITCSGRQK(5-FAM)-NH2 fluorogenic peptide as substrate preincubated for 10 mins followed by substrate addition and measured after 60 mins by HTRF assay; settings: erythrocyte
[2] = molecular target: T2, Cobalamin trafficking protein CblD (Homo sapiens) (UniProt Q9H3L0); test: Binding affinity to MMADHC in human LONP1 dependent Calu-6 cells assessed as increase in protein abundance by HTRF assay relative to control
T2 sequence (whole entry): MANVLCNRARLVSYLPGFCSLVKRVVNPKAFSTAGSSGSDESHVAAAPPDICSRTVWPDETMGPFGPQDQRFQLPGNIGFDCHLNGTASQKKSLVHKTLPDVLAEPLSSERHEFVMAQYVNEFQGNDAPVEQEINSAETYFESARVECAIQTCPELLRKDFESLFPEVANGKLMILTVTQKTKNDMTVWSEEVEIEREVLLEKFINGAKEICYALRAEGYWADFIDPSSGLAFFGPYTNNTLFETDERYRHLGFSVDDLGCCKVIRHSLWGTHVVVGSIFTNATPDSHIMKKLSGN

[3] = molecular target: T2, Cobalamin trafficking protein CblD (Homo sapiens); test: Binding affinity to MMADHC in human LONP1 dependent NCI-H1568 cells assessed as increase in protein abundance relative to control; type: cell-based
[4] = molecular target: T2, Cobalamin trafficking protein CblD (Homo sapiens); test: Binding affinity to MMADHC in human Flp-In-T-REx-293 stably expressing 3X-FLAG-tagged LOPN1 assessed as increase in protein abundance by mass spectrometric analysis
[5] = molecular target: T2, Cobalamin trafficking protein CblD (Homo sapiens); test: Binding affinity to MMADHC in human LONP1 dependent NCI-H1944 cells assessed as increase in protein abundance at 10 uM by WES analysis relative to control; type: cell-based

Row | Structure (SMILES) | pIC50 [1] | pIC50 (20S proteasome) | fold change (FC) [2] | fold change (FC) [3] | Activity [4] | fold change (FC) [5]
1 | CCC[C@@H](NC(=O)c1cnccn1)C(=O)N[C@@H](CC(C)C)B(O)O | 6.73 | < 5.00 | – | – | – | –
2 | CC(C)C[C@H](NC(=O)[C@H](NC(=O)c1cnccn1)C(C)(C)C)B(O)O | 5.55 | < 5.00 | – | – | – | –
3 | O=C(N[C@H](Cc1ccccc1)C(=O)N[C@@H](Cc1ccccc1)B(O)O)c1cnccn1 | 6.96 | 6.17 | – | – | – | –
4 | CCC[C@@H](NC(=O)c1cnccn1)C(=O)N[C@@H](CCCc1ccccc1)B(O)O | 7.77 | < 5.00 | – | – | – | –
5 | CCC[C@@H](NC(=O)c1oc(C)nc1C)C(=O)N[C@@H](CCCc1ccccc1)B(O)O | 7.23 | < 5.00 | 30 | 30 | Active | 30
6 | CC(C)C[C@H](NC(=O)[C@@H](C)NC(=O)c1cnccn1)B(O)O | 6.36 | 5.57 | – | – | – | –
7 | CCCC[C@H](NC(=O)[C@@H](CCC)NC(=O)c1cnccn1)B(O)O | 7.42 | < 5.00 | – | – | – | –
8 | O=C(N[C@H](Cc1ccccc1)C(=O)N[C@@H](CCCc1ccccc1)B(O)O)c1cnccn1 | 7.74 | 6.59 | – | – | – | –
9 | CC[C@@H](NC(=O)c1cnccn1)C(=O)N[C@@H](CC(C)C)B(O)O | 6.39 | < 5.00 | – | – | – | –
10 | O=C(N[C@H](Cc1ccccc1)C(=O)N[C@@H](CCCCCBr)B(O)O)c1cnccn1 | 7.11 | 5.71 | – | – | – | –
11 | CC(C)C[C@H](NC(=O)[C@H](NC(=O)c1cnccn1)C(C)C)B(O)O | 6.26 | 5.40 | – | – | – | –
12 | CCC[C@@H](NC(=O)c1cnccn1)C(=O)N[C@@H](CC1CCCCC1)B(O)O | 6.87 | < 5.00 | – | – | – | –
13 | O=C(N[C@H](Cc1ccccc1)C(=O)N[C@@H](CCc1ccccc1)B(O)O)c1cnccn1 | 7.47 | 6.58 | – | – | – | –
14 | CCC[C@@H](NC(=O)c1cnccn1)C(=O)N[C@@H](CCc1ccccc1)B(O)O | 7.04 | < 5.00 | – | – | – | –
15 | O=C(N[C@H](Cc1ccccc1)C(=O)N[C@@H](CC1CCCCC1)B(O)O)c1cnccn1 | 7.04 | 6.27 | – | – | – | –
16 | CCCC[C@@H](NC(=O)c1cnccn1)C(=O)N[C@@H](CC(C)C)B(O)O | 7.03 | < 5.00 | – | – | – | –
17 | CC(C)CCC[C@H](NC(=O)[C@@H](Cc1ccccc1)NC(=O)c1cnccn1)B(O)O | 7.19 | 5.98 | – | – | – | –
18 | CCC[C@@H](NC(=O)c1cnccn1)C(=O)N[C@@H](Cc1ccccc1)B(O)O | 6.25 | < 5.00 | – | – | – | –
19 | CC(C)C[C@H](NC(=O)C(C)(C)NC(=O)c1cnccn1)B(O)O | 5.21 | – | – | – | – | –
20 | CC(C)C[C@H](NC(=O)[C@@H](CC1CCCCC1)NC(=O)c1cnccn1)B(O)O | 6.86 | 6.07 | – | – | – | –
